Assay [1] deals with T1, serotonin S2 (5-HT2) receptors (Rattus norvegicus, UniProt P14842).
T1 construct: cortical tissue is dissected and weighed; from tissue; host or cells: cerebral cortex membranes of male Wistar (Mol:Wist) rats
Nature of the assay: inhibition of 3H-ketanserin binding to serotonin S2 (5-HT2) receptors in rat cortex in vitro. The settings on record: 3H-ketanserin 0.5 nM, rat cortex membranes, read-out: Binding IC50, 3H Ket. The procedure:
Method in Hyttel, Pharmacology & Toxicology, 61, 126-129. 1987.
Male Wistar (Mol:Wist) rats (125-250 g) are sacrifices and cortical tissue is dissected and weighed. The tissue is homogenized (Ultra Turrax, 10 sec.) in 10 ml of ice-cold 50 mM tris buffer pH 7.7 (at 25° C.). The centrifuge glassware used in this step has been rinsed by sonication for 10 min. in ethanol. The homogenate is centrifuged twice at 20,000 g for 10 min. at 4° C. with rehomogenization of the pellet in 10 ml ice-cold buffer. The final pellet is homogenized in 500 vol (w/v) ice-cold buffer.
Incubation tubes kept on ice in triplicate receive 100 μl of drug solution in water (or water for total binding) and 2000 μl of tissue suspension (final tissue content corresponds to 4 mg original tissue). […] After incubation for 30 min. the samples are filtered under vacuum (0-50 mBar) through Whatman GF/F filters (25 mm). The tubes are rinsed with 5 ml ice-cold buffer which are then poured on the filters. Thereafter, the filters are washed with 2×5 ml of buffer. The filters are placed in counting vials and 4 ml of appropriate scintillation fluid (e.g., Picofluor™15) are added. After shaking for 1 h and storage 2 hrs in the dark the content of radioactivity is determined by liquid scintillation counting. Specific binding is obtained by subtracting the nonspecific binding in the presence of 1 μM mianserin. For determination of the inhibition of binding five concentrations of drugs covering 3 decades are used.
The IC50 value is determined as the concentration at which the binding is 50% of the total binding in control samples minus the nonspecific binding in the presence of 1 μM mianserin.

Another assay deals with T2, dopamine D-2 receptors (Rattus norvegicus, UniProt P61169).
T2 construct: striatal tissue is dissected and weighed; from tissue; host or cells: corpus striatum membranes of male Wistar rats
T2 sequence (P61169 whole entry): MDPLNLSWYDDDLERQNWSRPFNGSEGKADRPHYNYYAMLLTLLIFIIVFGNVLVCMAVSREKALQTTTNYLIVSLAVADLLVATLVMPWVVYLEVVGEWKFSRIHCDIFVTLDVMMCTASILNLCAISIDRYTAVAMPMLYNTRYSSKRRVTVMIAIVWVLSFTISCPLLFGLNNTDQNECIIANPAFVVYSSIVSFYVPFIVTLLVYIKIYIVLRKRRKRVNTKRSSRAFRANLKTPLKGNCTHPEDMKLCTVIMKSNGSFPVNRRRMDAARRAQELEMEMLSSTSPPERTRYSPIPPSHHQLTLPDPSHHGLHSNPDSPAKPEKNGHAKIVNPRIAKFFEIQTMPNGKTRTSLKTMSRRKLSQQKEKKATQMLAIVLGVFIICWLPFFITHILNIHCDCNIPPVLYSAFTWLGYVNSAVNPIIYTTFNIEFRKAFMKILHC
The experiment in a line: inhibition of 3H-spiperone binding to dopamine D-2 receptors in rat corpus striatum in vitro. Conditions: 3H-spiperone 0.5 nM, rat corpus striatum membranes, in vitro; read-out: Binding IC50, 3H Spi. The procedure:
INHIBITION OF ^3 H-SPIPERONE BINDING TO DOPAMINE D-2 RECEPTORS IN RAT CORPUS STRIATUM IN VITRO
By this method the inhibition by drugs of the binding of ^3 H-spiperone (0.5 nM) to dopamine D-2 receptors in membranes from rat corpus striatum is determined in vitro. Method and results in Hyttel and Larsen, J. Neurochem, 44, 1615-1622, 1985).
Male Wistar (Mol:Wistar) rats (125-250 g) are sacrificed and striatal tissue is dissected and weighed. The tissue is homogenized (Ultra Turrax, 10 sec.) in 10 ml of ice-cold 50 mM K-phosphate buffer pH 7.4 (at 25° C.). The homogenate is centrifuged twice at 20,000 g for 10 min. at 4° C. with rehomogenization of the pellet in 10 ml ice-cold buffer. The final pellet is homogenized in 1300 vol (w/v) ice-cold buffer.
Incubation tubes kept on ice in triplicate receive 100 μl of drug solution in water (or water for total binding) and 4000 μl of tissue suspension (final tissue content corresponds to 3.08 mg original tissue). The binding experimental is initiated by addition of 100 μl of ^3 H-spiperone (final concentration 0.5 nM) and by placing the tubes in a 37° C. water bath. After incubation for 10 min. the samples are filtered under vacuum (0-50 mBar) through Whatman GF/F filters (25 mm). The tubes are rinsed with 5 ml ice-cold buffer which are then poured on the filters. Thereafter, the filters are washed with 2×5 ml of buffer. The filters are placed in counting vials and 4 ml of appropriate scintillation fluid (e.g. Picofluor ™15) are added. After shaking for 1 h and storage 2 hrs in the dark the content of radioactivity is determined by liquid scintillation counting. Specific binding is obtained by subtracting the nonspecific binding in the presence of 10 μM of 6,7-ADTN.
For determination of the inhibition of binding five concentrations of drugs covering 3 decades are used.
England, specific activity 15-25 Ci/mmol.

T1 sequence (P14842 whole entry): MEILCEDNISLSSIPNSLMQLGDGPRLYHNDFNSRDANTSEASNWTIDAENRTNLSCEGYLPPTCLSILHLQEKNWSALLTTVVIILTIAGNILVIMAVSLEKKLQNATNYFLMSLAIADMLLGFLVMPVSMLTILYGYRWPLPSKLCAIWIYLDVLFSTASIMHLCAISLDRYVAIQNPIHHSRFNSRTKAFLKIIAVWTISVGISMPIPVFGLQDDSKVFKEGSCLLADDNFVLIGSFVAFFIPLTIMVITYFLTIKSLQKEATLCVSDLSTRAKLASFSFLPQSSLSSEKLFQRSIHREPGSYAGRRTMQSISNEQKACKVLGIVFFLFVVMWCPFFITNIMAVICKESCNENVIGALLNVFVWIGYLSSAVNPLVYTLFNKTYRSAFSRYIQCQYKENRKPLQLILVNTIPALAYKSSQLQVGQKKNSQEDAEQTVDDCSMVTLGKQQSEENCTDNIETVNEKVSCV

Take `Cc1ccc2c(C3CCN(CCN4CCN(C(C)C)C4=O)CC3)cn(-c3cccc(C(F)(F)F)c3)c2c1` [Compound 15i, 3-[1-[2-[3-(2-propyl)-2-imidazolidinon-1-yl]ethyl]-4-piperidyl]-6-methyl-1-(3-trifluoromethylphenyl)-1H-indole]: the IC50 in assay [1] amounted to 150 nM; on dopamine D-2 receptors it was 3200 nM.

For the compound `Cc1ccc2c(C3CCN(CCN4CCN(C(C)C)C4=O)CC3)cn(-c3ccncc3)c2c1` [Compound 15e, 6-methyl-3-[1-[2-[3-(2-propyl)-2-imidazolidinon-1-yl]ethyl]-4-piperidyl]-1-(4-pyri-dyl)-1H-indole], the IC50 was 7.6 nM in assay [1] and 3500 nM at dopamine D-2 receptors.

Regarding `N#Cc1ccc2c(C3CCN(CCN4CCNC4=O)CC3)cn(-c3ccc(F)cc3)c2c1` [Compound 5j, 6-cyano-1-(4-fluorophenyl)-3-[1-[2-(2-imidazolidinon-1-yl)ethyl]-4-piperidyl]-1H-indole], the IC50 in assay [1] was 13 nM; at dopamine D-2 receptors it was 1500 nM.

With `Cc1ccc2c(C3CCN(CCN4CCN(C(C)C)C4=O)CC3)cn(-c3ccoc3)c2c1` [Compound 15d, 1-(3-furanyl)-6-methyl-3-[1-[2-[3-(2-propyl)-2-imidazolidinon-1-yl]ethyl]-4-piperi-dyl]-1H-indole], the half-inhibitory concentration (IC50) in assay [1] came out at 9.3 nM; at dopamine D-2 receptors it was 4500 nM.

With `CC(C)N1CCN(CCN2CCN(c3cn(-c4ccc(F)cc4)c4cc(Cl)ccc34)CC2)C1=O` [Compound 6a, 6-chloro-1-(4-fluorophenyl)-3-[4-[2-[3-(2-propyl)-2-imidazolidinon-1-yl]ethyl]-1-piperazinyl]-1H-indole], the concentration for half-maximal inhibition (IC50) in assay [1] was found to be 2.7 nM; on dopamine D-2 receptors, 81 nM.

For `CC(C)N1CCN(CCN2CCC(c3cn(-c4ccc(F)cc4)c4cc(C#N)ccc34)CC2)C1=O` [Compound 5i, 6-cyano-1-(4-fluorophenyl)-3-[1-[2-[3-(2-propyl)-2-imidazolidinon-1-yl]ethyl]-4-piperidyl]-1H-indole], the IC50 was 8.6 nM in assay [1] and 1100 nM on dopamine D-2 receptors.

`O=C1NCCN1CCN1CCC(c2cn(-c3ccccc3)c3cc(Cl)ccc23)CC1` [Compound 15m, 6-chloro-3-[1-[2-[2-imidazolidinon-1-yl]ethyl]-4-piperidyl]-1-phenyl-1H-indole]: the concentration for half-maximal inhibition (IC50) in assay [1] came to 4.4 nM; on dopamine D-2 receptors, 410 nM.

Consider `COc1ccc2c(C3CCN(CCN4CCOC4=O)CC3)cn(-c3ccc(F)cc3)c2c1` [Compound 4j, 1-(4-fluorophenyl)-6-methoxy-3-[1-[2-(2-oxazolidinon-1-yl]ethyl]-4-piperidyl]-1H-indole], for which the results for the IC50 (in assay [1]; on dopamine D-2 receptors) were 40 nM and 1100 nM, respectively.

In the case of `Cc1ccc2c(C3CCN(CCN4CCN(C(C)C)C4=O)CC3)cn(-c3cccs3)c2c1` [Compound 15b, 6-methyl-3-[1-[2-[3-(2-propyl)-2-imidazolidinon-1-yl]ethyl]-4-piperidyl]-1-(2-thie-nyl)-1H-indole], the concentration for half-maximal inhibition (IC50) is 6.7 nM in assay [1] and 2500 nM at dopamine D-2 receptors.

As to `CCN(CCN1CCC(c2cn(-c3ccc(F)cc3)c3cc(Cl)ccc23)CC1)C(=O)NC(C)C` [Compound 9d, 6-chloro-1-(4-fluorophenyl)-3-[1-[2-[1-ethyl-3-(2-propyl)-1-ureido]-1-ethyl]-4-piperidyl]-1H-indole], the IC50 in assay [1] was determined as 1.9 nM; on dopamine D-2 receptors, 150 nM.

Source of the values: patent US5216001A, “Indole derivatives” (H. Lunbeck A/S, priority 1990, dated 1993).
